What was measured:
[1] = 96 h of irradiation; cited from earlier work
[2] = Adsorption of sulfentrazone in PC vesicle-montmorillonite suspension as a function of buffer pH; assay type: physicochemical; settings: 5 g/L montmorillonite, 6 mM PC, 2.6 mM SFZ
Method: The formulations of PC with different herbicides were prepared by dissolving various quantities of the herbicide in question in a solution of 6 mM PC through sonication, and subsequent adding of montmorillonite. The herbicides employed were alachlor (hydrophobic in nature), atrazine (of basic nature) and sulfentrazone (of acid nature). […] The added amounts of the herbicides were 1.5-14 mM for alachlor, 1.8-2.4 mM for atrazine and 1.3-5.7 mM for sulfentrazone. The clay concentration was 1.6, 5 or 10 g/L. Following agitation during 24 h the suspensions were centrifuged at 20000 g during 10 min, the remaining herbicide in the supernatants was analysed, and the precipitates were lyophilised giving rise to the formulations. The herbicides were analysed by HPLC (Shimadzu Model 10A) fitted with a PDA detector. The reverse phase column was a Kromasil 100 C18 of 15 cm. The flow speed was 1.0 mL min−1. […]
The final concentrations of the formulations and the percentage in weight of the herbicides in the formulation are shown in Table 2. […] The active ingredient content was determined by means of sonication of 5 mg of each formulation in 20 ml of methanol. The suspensions were centrifuged and the herbicide in the supernatants was analysed. […]

[3] = Speciation of SFZ in solution; assay type: physicochemical
Text: A primordial factor in the encapsulation of acidic molecules is the pH of the solution. […] However, small anionic species can also permeabilise the bilayers of PC. In fact, SFZ adsorption at pH 7.0 was 4 times higher than the amount of neutral species in solution.

CCCN(CCC)c1c([N+](=O)[O-])cc(C(F)(F)F)cc1[N+](=O)[O-] [free trifluralin, trifluralin]
activity retained following irradiation [1]: 30%

Cc1nn(-c2cc(NS(C)(=O)=O)c(Cl)cc2Cl)c(=O)n1C(F)F [SFZ, sulfentrazone]
adsorption of SFZ ([2]; buffer of pH 5.0): 69.5%
adsorption of SFZ ([2]; buffer of pH 7.0 Trizma-HCl 1 M): 11.8%
speciation in solution: anions ([3]; pH 5.0): 2.7%
speciation in solution: neutral molecules ([3]; pH 5.0): 97.3%
speciation in solution: anionic species ([3]; pH 7.0): 73.4%
speciation in solution: neutrals ([3]; pH 7.0): 26.6%
